{"source": "paper PMC10027976", "about": "“Phylogeny-guided genome mining of roseocin family lantibiotics to generate improved variants of roseocin” (AMB Express, 2023)", "key": {"[1]": {"system": "M. luteus ATCC 10240 and methicillin-sensitive Staphylococcus aureus (MSSA) ATCC 25923", "assay": "MIC comparison of variants with wild-type roseocin, both strains", "format": "cell-based, Micrococcus luteus; Staphylococcus aureus", "settings": "M. luteus ATCC 10240 and MSSA ATCC 25923, in combination with wild-type Rosβ", "protocol": "(§1) The minimum inhibitory concentration of wild-type roseocin and its variants was determined with micro broth-dilution method. Sterile 96-well microtiter plates were treated with 200 µL of 1% (w/v) bovine serum albumin (BSA) in 1 × phosphate-buffered saline (PBS) solution at 37 °C for 30 min. After this, wells were washed with 1 × PBS to remove excess BSA (Ellis et al. [2020]). Log phase culture was diluted with Mueller Hinton Broth (MHB) to obtain 2 × 10^5 CFU/mL. The bacterial suspension and the lantibiotic were added to 96-well microplates at a ratio of 1:1. The microplates were incubated overnight at 37 °C. The lowest concentration at which no visible growth was observed, was considered MIC."}, "[2]": {"system": "M. luteus ATCC 10240", "assay": "MIC by micro broth-dilution method", "format": "cell-based, Micrococcus luteus", "settings": "for MIC against M. luteus ATCC 10240: micro broth-dilution, Mueller Hinton Broth, 2 × 10^5 CFU/mL mixed 1:1 with lantibiotic, BSA-treated 96-well plates, overnight 37 °C, lowest concentration with no visible growth, Rosα (variant) with wild-type Rosβ", "protocol": "as §1"}, "[3]": {"system": "MSSA ATCC 25923", "assay": "MIC by micro broth-dilution method", "format": "cell-based, Staphylococcus aureus", "settings": "for MIC against MSSA ATCC 25923: micro broth-dilution, Mueller Hinton Broth, 2 × 10^5 CFU/mL mixed 1:1 with lantibiotic, BSA-treated 96-well plates, overnight 37 °C, lowest concentration with no visible growth, Rosα (variant) with wild-type Rosβ", "protocol": "as §1"}, "[4]": {"system": "M. luteus ATCC 10240", "assay": "Agar diffusion assay in synergism with Rosβ", "format": "cell-based, Micrococcus luteus", "settings": "nutrient agar, leader removed with proteinase K, 4 μg, 2 μg and 1 μg with equal amount of Rosβ", "protocol": "Overnight 10 mL culture of Micrococcus luteus (ATCC 10240), grown in nutrient broth, was diluted to 0.1 OD600 in the fresh 5 mL nutrient broth. The 1 μL/mL of the culture was used for the inoculation in nutrient agar before plating. The culture was added in bearable to touch media. The nutrient agar culture plates were used for checking the activity of Rosα variant peptides and wild type as a positive control, in synergism with Rosβ in a 1:1 ratio.\nAlpha variant precursor peptides were cleaved with proteinase K to obtain their bioactive form, as described earlier (Singh et al. 2020) and were spotted with Rosβ in nutrient agar culture plate, in a dose-dependent manner i.e 1 µg, 2 µg, 4 µg (each)."}, "[5]": {"settings": "compared with wild-type Rosα, in combination with wild-type Rosβ"}}, "note": "Where no end group is shown, it is not given here."}
{"substance": "GAGSGVLGTWGCCSCLPWYSGWTVCGLACNPGKPCKN (also: bicyclic or more (positions not given here)) [Roseocin L8W, Rosα variant L8W, modified by RosM, tested in combination with wild-type Rosβ]", "values": [{"measurement": "Change of MIC / inhibitory activity relative to wild-type roseocin (in words)", "setting": "[1]", "result": "improvement in the MIC"}, {"measurement": "Change of MIC / inhibitory activity relative to wild-type roseocin (in words)", "setting": "[1]; listed as RosαL8W", "result": "significantly improved inhibitory activity"}, {"measurement": "Fold change of MIC against M. luteus ATCC 10240 relative to wild-type", "setting": "[2]; [5]", "result": "two-fold lower MIC"}, {"measurement": "MIC against M. luteus ATCC 10240", "setting": "[2]", "result": 0.25, "unit": "µM"}, {"measurement": "MIC against MSSA ATCC 25923", "setting": "[3]", "result": 2, "unit": "µM"}]}
{"substance": "Nisin [reference compound]", "values": [{"measurement": "MIC against M. luteus ATCC 10240", "setting": "[2]", "result": 0.0625, "unit": "µM"}, {"measurement": "MIC against MSSA ATCC 25923", "setting": "[3]", "result": 2, "unit": "µM"}]}
{"substance": "NGAGSGVLGTFGCCSCLPWYSGWTVCGLACNPGKPCKN (also: bicyclic or more (positions not given here)) [Roseocin L8F, Rosα variant L8F, modified by RosM, tested in combination with wild-type Rosβ]", "values": [{"measurement": "Change of MIC / inhibitory activity relative to wild-type roseocin (in words)", "setting": "[1]", "result": "improvement in the MIC"}, {"measurement": "Change of MIC / inhibitory activity relative to wild-type roseocin (in words)", "setting": "[1]; listed as RosαL8F", "result": "significantly improved inhibitory activity"}, {"measurement": "Zone of inhibition compared to wild type Rosα", "setting": "[4]", "result": "improved significantly"}, {"measurement": "MIC against M. luteus ATCC 10240", "setting": "[2]", "result": 0.5, "unit": "µM"}, {"measurement": "Fold change of MIC against MSSA ATCC 25923 relative to wild-type", "setting": "[3]; [5]", "result": "four-fold lower MIC"}, {"measurement": "MIC against MSSA ATCC 25923", "setting": "[3]", "result": 0.5, "unit": "µM"}]}
{"substance": "INGAGSGVLGTLGCCSCLPWYSGWTVCGLACNPGKPCKN (also: bicyclic or more (positions not given here)) [Roseocin (wild-type)]", "values": [{"measurement": "MIC against M. luteus ATCC 10240", "setting": "[2]", "result": 0.5, "unit": "µM"}, {"measurement": "MIC against MSSA ATCC 25923", "setting": "[3]", "result": 2, "unit": "µM"}]}
{"substance": "NGAGSGVLGTLGCCWCLPWYSGWTVCGLACNPGKPCKN (also: bicyclic or more (positions not given here)) [Roseocin S12W, Rosα variant S12W, modified by RosM, tested in combination with wild-type Rosβ]", "values": [{"measurement": "Change of MIC / inhibitory activity relative to wild-type roseocin (in words)", "setting": "[1]", "result": "no improvement"}, {"measurement": "MIC against M. luteus ATCC 10240", "setting": "[2]", "result": 0.5, "unit": "µM"}, {"measurement": "MIC against MSSA ATCC 25923", "setting": "[3]", "result": "> 16", "unit": "µM"}]}
{"substance": "NGAGSGVLGTLGCCSCLPWYSGWTQCGLACNPGKPCKN (also: bicyclic or more (positions not given here)) [Roseocin V22Q, Rosα variant V22Q, modified by RosM, tested in combination with wild-type Rosβ]", "values": [{"measurement": "Change of MIC / inhibitory activity relative to wild-type roseocin (in words)", "setting": "[1]", "result": "loss of potency"}, {"measurement": "MIC against M. luteus ATCC 10240", "setting": "[2]", "result": "> 8", "unit": "µM"}, {"measurement": "MIC against MSSA ATCC 25923", "setting": "[3]", "result": "> 16", "unit": "µM"}]}
